Results reported in US7932246B2, “Histone deacetylase inhibitors” (Chroma Therapeutics Ltd., priority 2005, dated 2011).

Legend:
HeLa cells = test: HeLa cell inhibition assay (SRB cell viability); type: cell-based; conditions: 72 h, IC50 range
Experimental: HeLa cells growing in log phase were harvested and seeded at 1000 cells/well (200 μl final volume) into 96-well tissue culture plates. Following 24 h of cell growth cells were treated with compounds (final concentration of 20 μM). Plates were then re-incubated for a further 72 h before a sulphorhodamine B (SRB) cell viability assay was conducted according to Skehan 1990 J Natl Canc Inst 82, 1107-1112.
(§1) Data were expressed as a percentage inhibition of the control, measured in the absence of inhibitor, as follows:— % inhibition=100−[(S^i/S^o)×100] where S^i is the signal in the presence of inhibitor and S^o is the signal in the presence of DMSO.
IC50 values were determined by non-linear regression analysis, after fitting the results of eight data points to the equation for sigmoidal dose response with variable slope (% activity against log concentration of compound), using Graphpad Prism software.
(§2) IC50 results were allocated to one of 3 ranges as follows: […]

HUT = HUT cell inhibition assay (WST-1 cell viability); type: cell-based; conditions: HUT cells, 72-96 h, WST-1 assay, IC50 range
Experimental: (§3) Cancer cell lines (U937 and HUT) growing in log phase were harvested and seeded at 1000-2000 cells/well (100 μl final volume) into 96-well tissue culture plates. Following 24 h of growth cells were treated with compound. Plates were then re-incubated for a further 72-96 h before a WST-1 cell viability assay was conducted according to the suppliers (Roche Applied Science) instructions.
as §1
(§4) Dose response curves were generated from 8 concentrations (top final concentration 10 μM, with 3-fold dilutions), using 6 replicates.
(§5) IC50 values were determined by non-linear regression analysis, after fitting the results to the equation for sigmoidal dose response with variable slope (% activity against log concentration of compound), using Graphpad Prism software.
as §2

[1] = biological target: histone deacetylase activity (HeLa nuclear extract); test: HDAC fluorescent activity assay (Biomol, Fluor de Lys substrate); type: biochemical; conditions: IC50 range
Experimental: The ability of compounds to inhibit histone deacetylase activities was measured using the commercially available HDAC fluorescent activity assay from Biomol. In brief, the Fluor de Lys™ substrate, a lysine with an epsilon-amino acetylation, is incubated with the source of histone deacetylase activity (HeLa nuclear extract) in the presence or absence of inhibitor. Deacetylation of the substrate sensitises the substrate to Fluor de Lys™ developer, which generates a fluorophore.
Data are expressed as a percentage of the control, measured in the absence of inhibitor, with background signal being subtracted from all samples, as follows:— % activity=[(S^i−B)/(S^o−B)]×100 where S^i is the signal in the presence of substrate, enzyme and inhibitor, S^o is the signal in the presence of substrate, enzyme and the vehicle in which the inhibitor is dissolved, and B is the background signal measured in the absence of enzyme.
Histone deacetylase activity from crude nuclear extract derived from HeLa cells was used for screening. The preparation, purchased from 4C (Seneffe, Belgium), was prepared from HeLa cells harvested whilst in exponential growth phase. The nuclear extract is prepared according to Dignam JD1983 Nucl. Acid. […] The final buffer composition was 20 mM Hepes, 100 mM KCl, 0.2 mM EDTA, 0.5 mM DTT, 0.2 mM PMSF and 20% (v/v) glycerol.

U937 = U937 cell inhibition assay (WST-1 cell viability); type: cell-based; conditions: U937 cells, 72-96 h, WST-1 assay, IC50 range
Experimental: as §3, §1, §4, §5, §2

Structure (SMILES)	IC50 (HeLa cells; Homo sapiens, HeLa)	IC50 (HUT)	IC50 [1]	IC50 (U937; Homo sapiens, U-937)	IC50 (HeLa cells)	IC50 (U937)
O=C(Cc1ccsc1)NC1C2CN(c3ncc(C(=O)NO)cn3)CC21 (centres unmarked) [Example 11, N-Hydroxy 2-{6-[(thien-3-ylacetyl)amino]-3-azabicyclo[3.1.0]hex-3-yl}pyrimidine-5-carboxamide]	331 to 3300 nM	331 to 3300 nM	< 100 nM	> 3300 nM	–	–
O=C(NO)c1cnc(N2CC3C(CNCc4ccc5ccccc5n4)C3C2)nc1 (centres unmarked) [Example 74, N-Hydroxy 2-(6-{[(quinolin-2-ylmethyl)amino]methyl}-3-azabicyclo[3.1.0]hex-3-yl)pyrimidine-5-carboxamide]	331 to 3300 nM	< 330 nM	< 100 nM	331 to 3300 nM	–	–
O=C(NO)c1cnc(N2CC3C(C2)C3NC(=O)C2CCCCC2)nc1 (centres unmarked) [Example 12, N-Hydroxy 2-{6-[(cyclohexylcarbonyl)amino]-3-azabicyclo[3.1.0]hex-3-yl}pyrimidine-5-carboxamide]	331 to 3300 nM	331 to 3300 nM	< 100 nM	331 to 3300 nM	–	–
CCN(CC)CCN(Cc1ccc2ccccc2c1)C1C2CN(c3ncc(C(=O)NO)cn3)CC21 (centres unmarked) [Example 56, N-Hydroxy 2-{6-[(2-diethylaminoethyl)naphthalen-2-ylmethylamino]-3-azabicyclo[3.1.0]hex-3-yl}pyrimidine-5-carboxamide]	< 330 nM	< 330 nM	< 100 nM	331 to 3300 nM	–	–
O=C(NO)c1cnc(N2CC3C(C2)C3N2CCCCC2)nc1 (centres unmarked) [Example 63, N-Hydroxy 2-(6-piperidin-1-yl-3-azabicyclo[3.1.0]hex-3-yl)pyrimidine-5-carboxamide]	> 3300 nM	331 to 3300 nM	101 to 1000 nM	> 3300 nM	–	–
O=C(NO)c1cnc(N2CC3C(CNCc4ccc5cc(F)ccc5n4)C3C2)nc1 (centres unmarked) [Example 75, N-Hydroxy 2-(6-{[(6-fluoroquinolin-2-ylmethyl)amino]methyl}-3-aza-bicyclo[3.1.0]hex-3-yl)pyrimidine-5-carboxamide]	331 to 3300 nM	331 to 3300 nM	101 to 1000 nM	331 to 3300 nM	–	–
O=C(NO)c1cnc(N2CC3CN(Cc4ccc(Cl)cc4)CC3C2)nc1 (centres unmarked) [Example 85, N-Hydroxy 2-[5-(4-chlorobenzyl)hexahydropyrrolo[3,4-c]pyrrol-2(1H)-yl]pyrimidine-5-carboxamide]	331 to 3300 nM	< 330 nM	< 100 nM	< 330 nM	–	–
O=C(NO)c1cnc(N2CC3CN(Cc4cc(F)cc(F)c4)CC3C2)nc1 (centres unmarked) [Example 83, N-Hydroxy 2-[5-(3,5-difluorobenzyl)hexahydropyrrolo[3,4-c]pyrrol-2(1H)-yl]pyrimidine-5-carboxamide]	331 to 3300 nM	< 330 nM	< 100 nM	< 330 nM	–	–
COc1ccc(CNC2C3CN(c4ncc(C(=O)NO)cn4)CC32)cc1 (centres unmarked) [Example 26, N-Hydroxy 2-{6-[(4-methoxybenzyl)amino]-3-azabicyclo[3.1.0]hex-3-yl}pyrimidine-5-carboxamide]	–	< 330 nM	< 100 nM	–	< 330 nM	< 330 nM
O=C(NO)c1cnc(N2CC3C(C2)C3NCc2ccc(Oc3ccccc3)cc2)nc1 (centres unmarked) [Example 22, N-Hydroxy 2-[6-(4-phenoxybenzylamino)-3-azabicyclo[3.1.0]hex-3-yl]pyrimidine-5-carboxamide]	< 330 nM	< 330 nM	< 100 nM	< 330 nM	–	–
O=C(NO)c1cnc(N2CC3C(C2)C3Nc2ccc3ccccc3n2)nc1 (centres unmarked) [Example 67, N-Hydroxy 2-[6-(quinolin-2-ylamino)-3-azabicyclo[3.1.0]hex-3-yl]pyrimidine-5-carboxamide]	331 to 3300 nM	< 330 nM	< 100 nM	331 to 3300 nM	–	–
O=C(NO)c1cnc(N2CC3C(C2)C3NS(=O)(=O)c2cc(C(F)(F)F)cc(C(F)(F)F)c2)nc1 (centres unmarked) [Example 3, N-Hydroxy 2-(6-{[(3,5-bistrifluoromethylphenyl)sulfonyl]amino}-3-azabicyclo[3.1.0]hex-3-1/1)pyrimidine-5-carboxamide]	331 to 3300 nM	< 330 nM	< 100 nM	< 330 nM	–	–
O=C(CCCOc1ccccc1)NC1C2CN(c3ncc(C(=O)NO)cn3)CC21 (centres unmarked) [Example 15, N-Hydroxy 2-[6-(4-phenoxybutyrylamino)-3-azabicyclo[3.1.0]hex-3-yl]pyrimidine-5-carboxamide]	331 to 3300 nM	331 to 3300 nM	< 100 nM	331 to 3300 nM	–	–
CC(C(=O)NC1C2CN(c3ncc(C(=O)NO)cn3)CC21)c1ccccc1 (centres unmarked) [Example 10, N-Hydroxy 2-{6-[(2-phenylpropanoyl)amino]-3-azabicyclo[3.1.0]hex-3-yl}pyrimidine-5-carboxamide]	331 to 3300 nM	331 to 3300 nM	< 100 nM	331 to 3300 nM	–	–
O=C(NO)c1ccc(N2CC3C(C2)C3NCc2ccc3ccccc3c2)cc1 (centres unmarked) [Example 88, N-Hydroxy 4-{6-[(naphthalen-2-ylmethyl)-amino]-3-azabicyclo[3.1.0]hex-3-yl}-benzamide]	331 to 3300 nM	331 to 3300 nM	101 to 1000 nM	331 to 3300 nM	–	–
O=C(NO)c1cnc(N2CC3C(CNCc4ccccc4)C3C2)nc1 (centres unmarked) [Example 72, N-Hydroxy 2-{6-[(benzylamino)methyl]-3-azabicyclo[3.1.0]hex-3-yl}pyrimidine-5-carboxamide]	331 to 3300 nM	< 330 nM	< 100 nM	331 to 3300 nM	–	–
O=C(NO)c1cnc(N2CC3C(C2)C3N(CCN2CCOCC2)S(=O)(=O)c2ccc3ccccc3c2)nc1 (centres unmarked) [Example 51]	< 330 nM	< 330 nM	< 100 nM	< 330 nM	–	–
CC(=O)N(Cc1ccc2ccccc2c1)C1C2CN(c3ncc(C(=O)NO)cn3)CC21 (centres unmarked) [Example 60, N-Hydroxy 2-[6-(acetylnaphthalen-2-ylmethylamino)-3-azabicyclo[3.1.0]hex-3-yl]pyrimidine-5-carboxamide]	< 330 nM	< 330 nM	< 100 nM	< 330 nM	–	–
O=C(NO)c1cnc(N2CC3C(C2)C3N2Cc3ccccc3CC2=O)nc1 (centres unmarked) [Example 65, N-Hydroxy 2-[6-(3-oxo-3,4-dihydroisoquinolin-2(1H)-yl)-3-azabicyclo[3.1.0]hex-3-yl]pyrimidine-5-carboxamide]	331 to 3300 nM	331 to 3300 nM	< 100 nM	331 to 3300 nM	–	–
Cn1cc(CC(=O)NC2C3CN(c4ncc(C(=O)NO)cn4)CC32)c2ccccc21 (centres unmarked) [Example 14, N-Hydroxy 2-{6-[2-(1-methyl-1H-indol-3-yl)acetylamino]-3-aza-bicyclo[3.1.0]hex-3-yl}pyrimidine-5-carboxamide]	331 to 3300 nM	331 to 3300 nM	< 100 nM	331 to 3300 nM	–	–
CCCCc1ccc(CNC2C3CN(c4ncc(C(=O)NO)cn4)CC32)cc1 (centres unmarked) [Example 23, N-Hydroxy 2-[6-(4-butylbenzylamino)-3-azabicyclo[3.1.0]hex-3-yl]pyrimidine-5-carboxamide]	331 to 3300 nM	< 330 nM	< 100 nM	331 to 3300 nM	–	–
O=C(NO)c1cnc(N2CC3C(C2)C3NCc2ccc3cc(F)ccc3n2)nc1 (centres unmarked) [Example 44, N-Hydroxy 2-(6-{[(6-fluoroquinolin-2-yl)methyl]amino}-3-azabicyclo[3.1.0]hex-3-yl)pyrimidine-5-carboxamide]	< 330 nM	< 330 nM	< 100 nM	< 330 nM	–	–
O=C(NO)c1cnc(N2CC3C(C2)C3N(Cc2ccc3ccccc3c2)C(=O)CCc2cccnc2)nc1 (centres unmarked) [Example 61, N-Hydroxy 2-{6-[naphthalen-2-ylmethyl-(3-pyridin-3-yl-propionyl)amino]-3-aza-bicyclo[3.1.0]hex-3-yl}pyrimidine-5-carboxamide]	331 to 3300 nM	< 330 nM	< 100 nM	331 to 3300 nM	–	–
